Laboratory results: article PMC5218480 (PLoS ONE, 2017)

Tested on: MV-4-11 cells
Test: Gene expression microarray analysis (Affymetrix PrimeView) and GSEA
Format: cell-based, human
Parameters: RFU PODN (11730768_x_at) / Fold change /veh PODN (11730768_x_at) / RFU LINC00158 (11744669_a_at) / Fold change /veh LINC00158 (11744669_a_at) / RFU DUSP10 (11751237_a_at) / Fold change /veh DUSP10 (11751237_a_at) / RFU ID3 (11757404_x_at) / Fold change /veh ID3 (11757404_x_at) / RFU PLEKHG5 (11737974_s_at) / Fold change /veh PLEKHG5 (11737974_s_at) / RFU LRRC4B (11730491_at) / Fold change /veh LRRC4B (11730491_at) / RFU GIMAP4 (11747438_a_at) / Fold change /veh GIMAP4 (11747438_a_at) / RFU KRT8 (11758183_x_at) / Fold change /veh KRT8 (11758183_x_at) / RFU CNN1 (11734310_a_at) / Fold change /veh CNN1 (11734310_a_at) / RFU VPS37D (11726825_at) / Fold change /veh VPS37D (11726825_at) / RFU C10orf10 (11716522_x_at) / Fold change /veh C10orf10 (11716522_x_at) / RFU KIR2DL2 /// KIR2DL4 /// KIR2DL5A /// KIR2DL5B /// KIR2DS1 /// KIR2DS2 /// KIR2DS3 /// KIR2DS4 /// KIR3DL3 /// KIR3DL3 /// KIR3DS1 (11738374_at) / Fold change /veh KIR2DL2 /// KIR2DL4 /// KIR2DL5A /// KIR2DL5B /// KIR2DS1 /// KIR2DS2 /// KIR2DS3 /// KIR2DS4 /// KIR3DL3 /// KIR3DL3 /// KIR3DS1 (11738374_at) / RFU C1QL1 (11718748_at) / Fold change /veh C1QL1 (11718748_at) / RFU TMPRSS4 (11747572_a_at) / Fold change /veh TMPRSS4 (11747572_a_at) / RFU HAMP (11756126_x_at) / Fold change /veh HAMP (11756126_x_at) / RFU RNFT2 (11725882_a_at) / Fold change /veh RNFT2 (11725882_a_at) / RFU NR4A2 (11747474_a_at) / Fold change /veh NR4A2 (11747474_a_at) / RFU ABCC12 (11746883_a_at) / Fold change /veh ABCC12 (11746883_a_at) / RFU TMEM136 (11760407_x_at) / Fold change /veh TMEM136 (11760407_x_at) / RFU CLDN22 /// WWC2 (11732394_at) / Fold change /veh CLDN22 /// WWC2 (11732394_at) / RFU HLA-DPB1 (11760878_x_at) / Fold change /veh HLA-DPB1 (11760878_x_at) / RFU SPINT1 (11716480_a_at) / Fold change /veh SPINT1 (11716480_a_at) / RFU GAP43 (11754022_s_at) / Fold change /veh GAP43 (11754022_s_at) / RFU A4GNT (11735810_at) / Fold change /veh A4GNT (11735810_at) / RFU PRB3 (11715151_x_at) / Fold change /veh PRB3 (11715151_x_at) / RFU TUBB4B (11761932_at) / Fold change /veh TUBB4B (11761932_at) / RFU CAPN14 (11732068_a_at) / Fold change /veh CAPN14 (11732068_a_at) / RFU TMCC2 (11721928_a_at) / Fold change /veh TMCC2 (11721928_a_at) / RFU IRGQ (11745062_a_at) / Fold change /veh IRGQ (11745062_a_at) / RFU FAM174B (11720279_a_at) / Fold change /veh FAM174B (11720279_a_at) / RFU TMPRSS4 (11748680_a_at) / Fold change /veh TMPRSS4 (11748680_a_at) / RFU FAM212B (11763350_a_at) / Fold change /veh FAM212B (11763350_a_at) / RFU PLEKHG5 (11743358_a_at) / Fold change /veh PLEKHG5 (11743358_a_at) / RFU ZSCAN30 (11745921_a_at) / Fold change /veh ZSCAN30 (11745921_a_at) / RFU CMKLR1 (11741424_a_at) / Fold change /veh CMKLR1 (11741424_a_at) / RFU LOC101060620 /// MAPK8IP1 (11723275_at) / Fold change /veh LOC101060620 /// MAPK8IP1 (11723275_at) / RFU SPTSSB (11747773_x_at) / Fold change /veh SPTSSB (11747773_x_at) / RFU PRSS12 (11739890_at) / Fold change /veh PRSS12 (11739890_at) / RFU BIN1 (11741810_x_at) / Fold change /veh BIN1 (11741810_x_at) / RFU WNT11 (11732464_a_at) / Fold change /veh WNT11 (11732464_a_at) / RFU C10orf10 (11716521_a_at) / Fold change /veh C10orf10 (11716521_a_at) / RFU C5orf56 (11738089_at) / Fold change /veh C5orf56 (11738089_at) / RFU CYB561 (11721691_x_at) / Fold change /veh CYB561 (11721691_x_at) / RFU ANKRD19P (11752326_a_at) / Fold change /veh ANKRD19P (11752326_a_at) / RFU OR2T12 /// OR2T33 /// OR2T8 (11738714_s_at) / Fold change /veh OR2T12 /// OR2T33 /// OR2T8 (11738714_s_at) / RFU VCAN (11748164_a_at) / Fold change /veh VCAN (11748164_a_at) / RFU JSRP1 (11732532_at) / Fold change /veh JSRP1 (11732532_at) / RFU KRTAP10-11 (11738290_x_at) / Fold change /veh KRTAP10-11 (11738290_x_at) / RFU MYO3A (11730013_a_at) / Fold change /veh MYO3A (11730013_a_at) / RFU EBF3 (11725865_a_at) / Fold change /veh EBF3 (11725865_a_at) / RFU CAMK2N1 (11719241_x_at) / Fold change /veh CAMK2N1 (11719241_x_at) / RFU C5orf56 (11738088_a_at) / Fold change /veh C5orf56 (11738088_a_at) / RFU OLFML3 (11715873_a_at) / Fold change /veh OLFML3 (11715873_a_at) / RFU LOC100653217 /// NTM (11731650_a_at) / Fold change /veh LOC100653217 /// NTM (11731650_a_at) / RFU MAPK11 (11762145_a_at) / Fold change /veh MAPK11 (11762145_a_at) / RFU FIZ1 (11724087_x_at) / Fold change /veh FIZ1 (11724087_x_at) / RFU OASL (11726364_x_at) / Fold change /veh OASL (11726364_x_at) / RFU SOX15 (11748057_x_at) / Fold change /veh SOX15 (11748057_x_at) / RFU CD79A (11719716_a_at) / Fold change /veh CD79A (11719716_a_at) / RFU HIST1H1D (11736915_at) / Fold change /veh HIST1H1D (11736915_at) / RFU CASKIN2 (11723855_a_at) / Fold change /veh CASKIN2 (11723855_a_at) / RFU LOC730098 (11760151_x_at) / Fold change /veh LOC730098 (11760151_x_at) / RFU OR4N2 (11742367_at) / Fold change /veh OR4N2 (11742367_at) / RFU PRRT2 (11749266_a_at) / Fold change /veh PRRT2 (11749266_a_at) / RFU SNX32 (11753110_a_at) / Fold change /veh SNX32 (11753110_a_at) / RFU CDHR5 (11726645_a_at) / Fold change /veh CDHR5 (11726645_a_at) / RFU RCAN1 (11760418_a_at) / Fold change /veh RCAN1 (11760418_a_at) / RFU FAM167A (11723789_a_at) / Fold change /veh FAM167A (11723789_a_at) / RFU FAM26E (11764081_at) / Fold change /veh FAM26E (11764081_at) / RFU ISYNA1 (11749810_s_at) / Fold change /veh ISYNA1 (11749810_s_at) / RFU ACY1 (11761880_at) / Fold change /veh ACY1 (11761880_at) / RFU 11764098_at / Fold change /veh 11764098_at / RFU SAMD14 (11745864_x_at) / Fold change /veh SAMD14 (11745864_x_at) / RFU NPB (11741838_a_at) / Fold change /veh NPB (11741838_a_at) / RFU TMPRSS6 (11731388_a_at) / Fold change /veh TMPRSS6 (11731388_a_at) / RFU KRTAP10-2 (11738614_at) / Fold change /veh KRTAP10-2 (11738614_at) / RFU ARHGAP8 /// PRR5-ARHGAP8 (11727945_x_at) / Fold change /veh ARHGAP8 /// PRR5-ARHGAP8 (11727945_x_at) / RFU KRTAP5-7 /// NADSYN1 (11734609_at) / Fold change /veh KRTAP5-7 /// NADSYN1 (11734609_at) / RFU RASL12 (11751679_a_at) / Fold change /veh RASL12 (11751679_a_at) / RFU CDKN2B (11736163_a_at) / Fold change /veh CDKN2B (11736163_a_at) / RFU PRF1 (11729649_at) / Fold change /veh PRF1 (11729649_at) / RFU, ZNF638 /// ZNF638-IT1 / Fold change vs veh, ZNF638 /// ZNF638-IT1 / RFU, PANK3 / Fold change vs veh, PANK3 / RFU, SH3YL1 / Fold change vs veh, SH3YL1 / RFU, ZEB2 / Fold change vs veh, ZEB2 / RFU, NRIP1 / Fold change vs veh, NRIP1 / RFU, PTTG1IP / Fold change vs veh, PTTG1IP / RFU, CAPN2 / Fold change vs veh, CAPN2 / RFU, MED14 / Fold change vs veh, MED14 / RFU, SNORA58 / Fold change vs veh, SNORA58 / RFU, C1orf63 / Fold change vs veh, C1orf63 / RFU, LRRFIP1 / Fold change vs veh, LRRFIP1 / RFU, NDUFAF7 / Fold change vs veh, NDUFAF7 / RFU, SLC12A2 / Fold change vs veh, SLC12A2 / RFU, IBTK / Fold change vs veh, IBTK / RFU, ESF1 / Fold change vs veh, ESF1 / Fold change vs veh, TMEM50B / RFU, TAOK1 / Fold change vs veh, TAOK1 / RFU, ACBD3 / Fold change vs veh, ACBD3 / RFU, TMA16 / Fold change vs veh, TMA16 / RFU, RWDD3 / Fold change vs veh, RWDD3 / RFU, BCAT1 / Fold change vs veh, BCAT1 / RFU, EDEM3 / Fold change vs veh, EDEM3 / RFU, TMEM33 / Fold change vs veh, TMEM33 / RFU, WDR75 / Fold change vs veh, WDR75 / RFU, AHCTF1 / Fold change vs veh, AHCTF1 / RFU, TFRC / Fold change vs veh, TFRC / RFU, ZDHHC17 / Fold change vs veh, ZDHHC17 / RFU, NOM1 / Fold change vs veh, NOM1 / RFU, ARL8B / Fold change vs veh, ARL8B / RFU, ZBTB11 / Fold change vs veh, ZBTB11 / RFU, TAMM41 / Fold change vs veh, TAMM41 / RFU, KIAA1704 /// LOC100996395 / Fold change vs veh, KIAA1704 /// LOC100996395 / RFU, ING1 / Fold change vs veh, ING1 / RFU, TRMT61B / Fold change vs veh, TRMT61B / RFU, FUBP3 / Fold change vs veh, FUBP3 / RFU, TP53 / Fold change vs veh, TP53 / RFU, TNKS2 / Fold change vs veh, TNKS2 / RFU, ZFP14 / Fold change vs veh, ZFP14 / RFU, ACTR2 / Fold change vs veh, ACTR2 / RFU, PPP3R1 / Fold change vs veh, PPP3R1 / RFU, PIK3R1 / Fold change vs veh, PIK3R1 / RFU, HNRNPA1 / Fold change vs veh, HNRNPA1 / RFU, RNF170 / Fold change vs veh, RNF170 / RFU, ZNF28 / Fold change vs veh, ZNF28 / RFU, RNGTT / Fold change vs veh, RNGTT / RFU, OGT / Fold change vs veh, OGT / RFU, BRD1 / Fold change vs veh, BRD1 / RFU, MARS / Fold change vs veh, MARS / RFU, ZNF655 / Fold change vs veh, ZNF655 / RFU, FAHD1 / Fold change vs veh, FAHD1 / RFU, BDP1 / Fold change vs veh, BDP1 / RFU, LRRCC1 / Fold change vs veh, LRRCC1 / RFU, ARID1A / Fold change vs veh, ARID1A / RFU, ZNF146 / Fold change vs veh, ZNF146 / RFU, ZNF330 / Fold change vs veh, ZNF330 / RFU, GPN3 / Fold change vs veh, GPN3 / RFU, C9orf123 / Fold change vs veh, C9orf123 / RFU, N4BP2L2 / Fold change vs veh, N4BP2L2 / RFU, ARFIP1 / Fold change vs veh, ARFIP1 / RFU, FAM179B / Fold change vs veh, FAM179B / RFU, BCL10 / Fold change vs veh, BCL10 / RFU, UHRF1BP1L / Fold change vs veh, UHRF1BP1L / RFU, BET1 / Fold change vs veh, BET1 / RFU, CNOT2 / Fold change vs veh, CNOT2 / RFU, ZNF268 / Fold change vs veh, ZNF268 / Fold change vs veh, ZNF507 / RFU, DGCR2 / Fold change vs veh, DGCR2 / RFU, WDSUB1 / Fold change vs veh, WDSUB1 / Fold change vs veh, HSP90B1 /// MIR3652 / RFU, ADSS / Fold change vs veh, ADSS / RFU, GK / Fold change vs veh, GK / RFU, ZNF148 / Fold change vs veh, ZNF148 / RFU, TAF9 / Fold change vs veh, TAF9 / RFU, SLC1A5 / Fold change vs veh, SLC1A5 / RFU, SLMO2 / Fold change vs veh, SLMO2 / RFU, ABCC4 / Fold change vs veh, ABCC4 / RFU, LOC101060439 /// RAP1B / Fold change vs veh, LOC101060439 /// RAP1B / RFU, RFX7 / Fold change vs veh, RFX7 / RFU, GTPBP10 / Fold change vs veh, GTPBP10 / RFU, CNEP1R1 / Fold change vs veh, CNEP1R1 / RFU, BIVM-ERCC5 /// ERCC5 / Fold change vs veh, BIVM-ERCC5 /// ERCC5 / RFU, ILF3 / Fold change vs veh, ILF3 / RFU 11762660_at / Fold change /veh 11762660_at / RFU VCAN (11757783_s_at) / Fold change /veh VCAN (11757783_s_at) / RFU DDX43 (11728927_at) / Fold change /veh DDX43 (11728927_at) / RFU KRT8 (11758188_x_at) / Fold change /veh KRT8 (11758188_x_at) / RFU NKD1 (11759106_at) / Fold change /veh NKD1 (11759106_at) / RFU SRD5A1 (11742802_a_at) / Fold change /veh SRD5A1 (11742802_a_at) / RFU TPSAB1 /// TPSB2 (11721975_s_at) / Fold change /veh TPSAB1 /// TPSB2 (11721975_s_at) / RFU GSTM3 (11746129_a_at) / Fold change /veh GSTM3 (11746129_a_at) / RFU IL23R (11737362_x_at) / Fold change /veh IL23R (11737362_x_at) / RFU TMEM51 (11727254_a_at) / Fold change /veh TMEM51 (11727254_a_at) / RFU PIWIL2 (11732686_x_at) / Fold change /veh PIWIL2 (11732686_x_at) / RFU ORM1 (11744905_x_at) / Fold change /veh ORM1 (11744905_x_at) / RFU CCDC152 (11743942_at) / Fold change /veh CCDC152 (11743942_at) / RFU ECM1 (11717891_a_at) / Fold change /veh ECM1 (11717891_a_at) / RFU IL23R (11748794_a_at) / Fold change /veh IL23R (11748794_a_at) / RFU TNFAIP8L3 (11732012_x_at) / Fold change /veh TNFAIP8L3 (11732012_x_at) / RFU MBOAT4 (11741988_at) / Fold change /veh MBOAT4 (11741988_at) / RFU 11764193_at / Fold change /veh 11764193_at / RFU TMEM53 (11763286_at) / Fold change /veh TMEM53 (11763286_at) / RFU MAGEB2 (11727129_at) / Fold change /veh MAGEB2 (11727129_at) / RFU TMEM200A (11744735_a_at) / Fold change /veh TMEM200A (11744735_a_at) / RFU CCDC152 (11751479_a_at) / Fold change /veh CCDC152 (11751479_a_at) / RFU FAM211A (11726209_a_at) / Fold change /veh FAM211A (11726209_a_at) / RFU RGS16 (11746705_a_at) / Fold change /veh RGS16 (11746705_a_at) / RFU VCAN (11755009_s_at) / Fold change /veh VCAN (11755009_s_at) / RFU RHOB (11743442_s_at) / Fold change /veh RHOB (11743442_s_at) / RFU RGS16 (11720943_a_at) / Fold change /veh RGS16 (11720943_a_at) / RFU RGS16 (11720944_at) / Fold change /veh RGS16 (11720944_at) / RFU, VPS4B / Fold change vs veh, VPS4B / RFU, CREB1 / Fold change vs veh, CREB1 / RFU, DNAJC13 / Fold change vs veh, DNAJC13 / RFU, GNAQ / Fold change vs veh, GNAQ / RFU, CDK5R1 / Fold change vs veh, CDK5R1 / RFU, ZRANB3 / Fold change vs veh, ZRANB3 / RFU, CUL4A / Fold change vs veh, CUL4A / RFU, CCNY / Fold change vs veh, CCNY / RFU, UFL1 / Fold change vs veh, UFL1 / RFU, COG3 / Fold change vs veh, COG3 / RFU, DIAPH2 / Fold change vs veh, DIAPH2 / RFU, SKA2 / Fold change vs veh, SKA2 / RFU, AFF3 / Fold change vs veh, AFF3 / RFU, LMF1 / Fold change vs veh, LMF1 / RFU, IPO11 / Fold change vs veh, IPO11 / RFU, DFFB / Fold change vs veh, DFFB / RFU, FOXP1 / Fold change vs veh, FOXP1 / RFU, CARD8 / Fold change vs veh, CARD8 / RFU, STRN3 / Fold change vs veh, STRN3 / RFU, ADK / Fold change vs veh, ADK / RFU, RASSF2 / Fold change vs veh, RASSF2 / RFU, WIPF1 / Fold change vs veh, WIPF1 / RFU, LARP1B / Fold change vs veh, LARP1B / RFU, RASA1 / Fold change vs veh, RASA1 / RFU, RB1 / Fold change vs veh, RB1 / RFU, PPFIA1 / Fold change vs veh, PPFIA1 / RFU, MAT2A / Fold change vs veh, MAT2A / RFU, CCT5 / Fold change vs veh, CCT5 / RFU, WDR92 / Fold change vs veh, WDR92 / RFU, CUX1 / Fold change vs veh, CUX1 / RFU, TTC7A / Fold change vs veh, TTC7A / RFU, TMEM135 / Fold change vs veh, TMEM135 / RFU, DEPTOR / Fold change vs veh, DEPTOR / RFU, CPM / Fold change vs veh, CPM / RFU, DNAJB6 / Fold change vs veh, DNAJB6 / RFU, CACNA2D3 / Fold change vs veh, CACNA2D3 / RFU, DTX4 / Fold change vs veh, DTX4 / RFU, TFCP2 / Fold change vs veh, TFCP2 / RFU, GMCL1 /// GMCL1P1 / Fold change vs veh, GMCL1 /// GMCL1P1 / RFU, AEBP2 / Fold change vs veh, AEBP2 / RFU, SNHG1 /// SNORD22 /// SNORD25 /// SNORD26 /// SNORD27 /// SNORD28 /// SNORD29 /// SNORD31 / Fold change vs veh, SNHG1 /// SNORD22 /// SNORD25 /// SNORD26 /// SNORD27 /// SNORD28 /// SNORD29 /// SNORD31 / Fold change (Aza/veh), C12orf56 (ProbeSet 11735607_a_at) / Fold change (ACY-1035/veh), C12orf56 (ProbeSet 11735607_a_at) / Fold change (Aza/veh), FGFR1OP (ProbeSet 11751329_s_at) / Fold change (ACY-1035/veh), FGFR1OP (ProbeSet 11751329_s_at) / Fold change (Aza/veh), VPS36 (ProbeSet 11739960_a_at) / Fold change (ACY-1035/veh), VPS36 (ProbeSet 11739960_a_at) / RFU SYPL1 (11715823_x_at) / Fold change /veh SYPL1 (11715823_x_at) / RFU IGFBP7 (11715501_s_at) / Fold change /veh IGFBP7 (11715501_s_at) / RFU REEP3 (11722064_at) / Fold change /veh REEP3 (11722064_at) / RFU IGLL1 (11728026_x_at) / Fold change /veh IGLL1 (11728026_x_at): dose or concentration left out as unconfirmed
Conditions: MV-4-11 cells, 48 hours

## Nc1ccc(-c2cccs2)cc1NC(=O)c1ccc2c(c1)cc(C1CC1)n2CCN1CCOCC1 [ACY-1035]
  RFU REEP3 (11722064_at): 19.86 RFU
